Assay results as given in the NIST ThermoML archive (doi:10.1021/je600554h).
± gives the expanded uncertainty stated by the source.

Conditions: 101.33 kPa, Liquid; for viscosity: Capillary tube (Ostwald / Ubbelohde) method

COC(C)(C)C [2-methoxy-2-methylpropane]
Conditions | mass density [kg/m3] | viscosity [mPa·s]
273.15 K | 761.34 ± 0.25 | 0.443 ± 0.009
278.15 K | 756.14 ± 0.26 | 0.417 ± 0.009
283.15 K | 751.02 ± 0.26 | 0.392 ± 0.008
288.15 K | 745.85 ± 0.27 | 0.37 ± 0.008
293.15 K | 740.65 ± 0.27 | –
298.15 K | 735.4 ± 0.27 | –
303.15 K | 730.1 ± 0.28 | –
308.15 K | 724.82 ± 0.28 | –
313.15 K | 719.42 ± 0.29 | –
318.15 K | 713.96 ± 0.29 | –

CCCCCCC [heptane]
Conditions | mass density [kg/m3] | viscosity [mPa·s]
273.15 K | 700.75 ± 0.62 | 0.526 ± 0.009
278.15 K | 696.59 ± 0.62 | 0.495 ± 0.009
283.15 K | 692.42 ± 0.63 | 0.465 ± 0.009
288.15 K | 688.22 ± 0.64 | 0.438 ± 0.009
293.15 K | 684 ± 0.64 | 0.415 ± 0.009
298.15 K | 679.75 ± 0.65 | 0.392 ± 0.009
303.15 K | 675.48 ± 0.66 | 0.372 ± 0.008
308.15 K | 671.19 ± 0.66 | 0.354 ± 0.008
313.15 K | 666.86 ± 0.67 | 0.336 ± 0.008
318.15 K | 662.5 ± 0.68 | –
323.15 K | 658.11 ± 0.68 | –
328.15 K | 653.68 ± 0.69 | –
333.15 K | 649.22 ± 0.7 | –
338.15 K | 644.72 ± 0.71 | –
343.15 K | 640.17 ± 0.71 | –
348.15 K | 635.58 ± 0.72 | –
353.15 K | 630.41 ± 0.73 | –
358.15 K | 626.34 ± 0.74 | –

CCCCCCCC [octane]
Conditions | mass density [kg/m3] | viscosity [mPa·s]
273.15 K | 718.58 ± 0.6 | 0.718 ± 0.009
278.15 K | 714.61 ± 0.61 | 0.671 ± 0.009
283.15 K | 710.62 ± 0.62 | 0.623 ± 0.009
288.15 K | 706.62 ± 0.62 | 0.584 ± 0.009
293.15 K | 702.61 ± 0.63 | 0.545 ± 0.009
298.15 K | 698.57 ± 0.64 | 0.514 ± 0.009
303.15 K | 694.52 ± 0.64 | 0.486 ± 0.009
308.15 K | 690.44 ± 0.65 | 0.459 ± 0.009
313.15 K | 686.35 ± 0.65 | 0.434 ± 0.009
318.15 K | 682.23 ± 0.66 | 0.415 ± 0.009
323.15 K | 678.09 ± 0.67 | 0.394 ± 0.009
328.15 K | 673.92 ± 0.67 | 0.375 ± 0.009
333.15 K | 669.71 ± 0.68 | 0.357 ± 0.008
338.15 K | 665.51 ± 0.69 | –
343.15 K | 661.24 ± 0.69 | –
348.15 K | 656.96 ± 0.7 | –
353.15 K | 652.63 ± 0.71 | –
358.15 K | 648.26 ± 0.72 | –
363.15 K | 643.85 ± 0.72 | –
